According to patent publication US20240180956A1, “A VAGINAL CONTRACEPTIVE COMPOSITION FOR REINFORCEMENT OF THE CERVICAL MUCUS BARRIER PROPERTIES” (CIRQLE BIOMEDICAL CONTRACEPTION APS, priority 2021, published 2024):

Test system: human ovulatory cervical mucus
Assay: Sperm penetration through human cervical ovulatory mucus (capillary assay, phase contrast microscopy)
Type: cell-based
Conditions: PLL 5 mg/mL in 32.5 mM lactic acid; 30 minutes after exposure to undiluted sperm; vs lactic acid solution alone or untreated
Protocol: All chitosans were dissolved in a 100 mM or a 32.5 mM lactic acid solution at a concentration of 0.5% (w/v chitosan) and adjusted to pH 5.5 (pH±0.02) by the use of 0.1 or 1 M hydrochloric acid (HCl, Merck KgaA, Germany), and 0.1 or 1 M sodium hydroxide (NaOH, CPAchem Ltd., Bulgaria) or 50% NaOH (Sigma-Aldrich, USA).
Semen samples of patients and volunteers collected at the Andrology, Sexual Medicine, Transmedicine, clinic (ANOVA, Karolinska University Hospital, Sweden) were run through standard semen kinematic analyses and sperm penetration assays no later than 3 h after collection. Data were obtained for the collection time, abstinence time, and semen volume.
Semen was gently liquefied for 30 min on a rocker in an incubation chamber heated up to 37° C., after complete collection of ejaculates by masturbation. The viscosity of semen was determined visually and by pipetting. Semen was microscopically analysed by pipetting 6 μl of specimen in pre-warmed Leja® (Netherland) counting chamber slides (20 micron). Subsequently, specimens were assessed via clinical ECLIPSE 50i microscope (Nikon Instruments, Japan) equipped with stage heater MS 100 (37° C., Linkam Scientific Instruments, UK), 10× objective (Ph1) and 0.5× charge coupled device camera UI-1540LE-M-HQ (IDS Imaging Development Systems GmbH, Germany) with total magnification of 5×. […]

For poly-L-lysine [PLL], the “sperm detected throughout the capillary filled with ovulatory cervical mucus” value was “Less sperm was detected”.
